Structures can show the parent of a compound that is named as a salt. Where two headings read alike, the source gives them in different places.
How the values were obtained:
FLT3 kinase = FLT3 kinase (Homo sapiens (Human), UniProt P36888); assay: In vitro FLT3 kinase HTRF assay (Example 2); format: biochemical; settings: HTRF
Protocol: Inhibition of the FLT3 kinase activity was measured using homogeneous, time-resolved fluorescence (HTRF) assays. Recombinant proteins containing the FLT3 kinase domain were purchased from Carna biosciences (Japan). Optimal enzyme, ATP, and substrate concentrations were established using the HTRF KinEASE kit (Cisbio, France) according to the manufacturer's instructions. The FLT3 enzymes were mixed in sequence with diluted compounds and peptide substrates in a kinase reaction buffer (50 mM HEPES (pH 7.0), 500 μM ATP, 0.1 mM sodium orthovanadate, 5 mM MgCl2, 1 mM DTT, 0.01% bovine serum albumin (BSA), and 0.02% NaN3). After the addition of the reagents for detection, the TR-FRET signal was measured using a Victor multilabel reader (Perkin Elmer, Waltham, Mass., USA). […] JAK2, JAK3, cMET, and RET in vitro kinase assays were also performed using the HTRF assay.

MV4;11 cells = assay: Cell viability, EZ-Cytox tetrazolium assay, MV4;11; format: cell-based, human; settings: 72 hours; for GI50: read-out: GI50(nM) MV4;11
Protocol: The cultured cells were incubated at 3° C. with 5% CO2.
(§1) Cell viability was assessed by a tetrazolium-based assay using the EZ-Cytox Cell Viability Assay kit (DaeilLab, Korea). Briefly, 2,000 to 15,000 cells were plated in 96-well plates in 100 μl of medium. The next day, the cells were treated with compounds together with dimethyl sulfoxide (DMSO) as a negative control. Three days (72 hours) after the drug addition, 15 μl of the EZ-Cytox kit reagent was added to each well of the 96-well plate and then incubated at 37° C. in a humidified CO2 incubator for 4 hours. After incubation, the optical density (OD) was measured at a wavelength of 450 nm using a Victor multilabel reader (Perkin Elmer, Waltham, Mass., USA).

MDA-MB-231 = assay: Cell viability, EZ-Cytox tetrazolium assay, MDA-MB-231; format: cell-based, human; settings: 72 hours
Protocol: MDA-MB-231 (metastatic breast cancer, ATCC HTB-26), Jurkat (human acute T lymphocytic leukemia, ATCC TIB-152), and K-562 (human chronic myelogenous leukemia, ATCC CCL-243) cells were cultured in RPMI-1640 (Sigma Co.). MCF7 (human breast adenocarcinoma, ATCC HTB-22) and PC-3 (human prostate adenocarcinoma, ATCC CRL-1435) cells were cultured in DMEM (Sigma Co.) medium supplemented with 10% fetal bovine serum and 1% penicillin/streptomycin. The cultured cells were incubated at 3° C. with 5% CO2.
as §1, with “USA). The IC50 was calculated by nonlinear regression using Prism version 5.01 (GraphPad, La Jolla, Calif., USA).” for “USA).”

MDA-MB-231 xenograft = assay: MDA-MB-231 mouse tumor xenograft; format: in vivo; settings: 20 mg/kg/p.o/day, 4 weeks
Protocol: 6-weeks-old Balb/c nu/nu mice (female) were purchased from Central Lab. Animal Inc. to be used. […] The candidate substances LDD-2614 (Compound 21), 2633 (Compound 28), 2634 (Compound 34), 2635 (Compound 33) were administered at 20 mg/kg/p.o/day, and doxorubicin, which was a control, was administered at 5 mg/kg/i.p (once a week) for 4 weeks.

MV4-11 xenograft = assay: MV4-11 mouse tumor xenograft, oral administration
Protocol: The drug or the control PBS was administered daily for a duration of 21 days. Tumor sizes were measured twice a week for 21 days, and the tumor volumes were calculated with the following formula: V (volume)=X (length)×D (width)2/2. After 21 days, the mice were sacrificed, and the tumor weights were measured.
An in vivo MV4-11 xenograft study was performed to determine the efficacy of the indirubin derivatives. MV4-11 cells were subcutaneously injected into BALB/c nu/nu mice, and tumors were allowed to grow to a size of approximately 100 mm^3.

MOLM14 Wild type = assay: Cell proliferation MTT assay, MOLM14 wild type; format: cell-based; settings: Homo sapiens, MOLM-14
Source text: (§2) MOLM14 were purchased from the ATCC and the cells were maintained in RPMI medium (Hyclone) with 10% Fetal bovine serum (Gibco) and 1% penicillin/streptomycin.

MOLM14 FLT3-ITD-D835Y = assay: Cell proliferation MTT assay, MOLM14-ITD-D835Y; format: cell-based, human; settings: for GI50: Homo sapiens, MOLM-14
Protocol: as §2
Mutagenesis is performed in FLT3-ITD MSCV plasmid using Q5 site-directed mutagenesis kit (E05545). […] Retroviral particles were produced by transiently transfecting HEK293T cells with Retroviral vectors together with packaging vectors, GPE and VSVG. 48 h after transfection, media containing viral particles were collected and filtered for infection. Viral particles were infected to MOLM14 cells and 48 h after infection, infected cells were selected with puromycin (1 μg/mL).

[1] = Table 1, recombinant FLT3 kinase domain, 500 μM ATP

FLT3 kinase, sequence (P36888 610-943): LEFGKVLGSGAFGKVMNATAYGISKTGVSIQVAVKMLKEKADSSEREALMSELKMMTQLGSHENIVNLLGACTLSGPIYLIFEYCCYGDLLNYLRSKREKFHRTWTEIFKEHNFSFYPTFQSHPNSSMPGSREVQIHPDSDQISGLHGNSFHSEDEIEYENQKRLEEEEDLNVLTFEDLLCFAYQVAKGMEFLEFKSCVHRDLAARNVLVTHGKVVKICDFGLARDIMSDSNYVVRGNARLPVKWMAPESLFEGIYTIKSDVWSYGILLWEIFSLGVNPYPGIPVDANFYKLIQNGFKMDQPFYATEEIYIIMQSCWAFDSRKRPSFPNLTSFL

O=C1Nc2ccc(C(=O)O)cc2/C1=C1/Nc2ccccc2/C1=N\O [Compound 7, (2Z,3E)-3-(hydroxyimino)-2′-oxo-[2,3′-biindolinylidene]-5′-carboxylic acid]
IC50 (FLT3 kinase; [1]): 8 nM
IC50 (MV4;11 cells; Homo sapiens, MV4-11, Table 1): 4020 nM
Ic50 (nM) MV4;11 (MV4;11 cells; Table 1): lacking anti-proliferative activity

O=C1Nc2ccc(C(=O)O)cc2/C1=C1/Nc2ccccc2/C1=N\OCCBr [Compound 8, (2Z,3E)-3-((2-bromoethoxy)imino)-2′-oxo-[2,3′-biindolinylidene]-5′-carboxylic acid]
IC50 (FLT3 kinase; [1]): 13 nM
IC50 (MV4;11 cells; Homo sapiens, MV4-11, Table 1): 340 nM

NCCO/N=C1/C(=C2/C(=O)Nc3ccc(C(=O)O)cc32)Nc2ccccc21 [Compound 9, (2Z,3E)-3-((2-aminoethoxy)imino)-2′-oxo-[2,3′-biindolinylidene]-5′-carboxylic acid hydrochloride]
IC50 (FLT3 kinase; [1]): 3 nM
IC50 (MV4;11 cells; Homo sapiens, MV4-11, Table 1): 150 nM

O=C1Nc2ccc([N+](=O)[O-])cc2/C1=C1/Nc2ccc(O)cc2/C1=N\O [Compound 13, (2Z,3E)-5-hydroxy-3-(hydroxyimino)-5′-nitro-[2,3′-biindolinylidene]-2′-one]
IC50 (FLT3 kinase; Table 2): 23.4 nM
GI50 (MV4;11 cells; Homo sapiens, MV4-11): 170 nM
GI50 (MDA-MB-231; Homo sapiens, MDA-MB-231): 568 nM

Cl.Cl.O=C1Nc2ccc(F)cc2/C1=C1/Nc2ccc(F)cc2/C1=N\OCCN1CCNCC1 [Compound 21, (2Z,3E)-5,5′-difluoro-3-((2-(piperazin-1-yl)ethoxy)imino)-[2,3′-biindolinylidene]-2′-one dihydrochloride]
GI50 (MV4;11 cells; Homo sapiens, MV4-11): 8.9 nM
GI50 (MDA-MB-231; Homo sapiens, MDA-MB-231): 121 nM
weights of the liver and the kidney (MDA-MB-231 xenograft): no significant difference

O=C1Nc2ccc(F)cc2/C1=C1/Nc2ccc(F)cc2/C1=N\OCCN1CCOCC1 [Compound 27, (2Z,3E)-5,5′-difluoro-3-((2-morpholinoethoxy)imino)-[2,3′-biindolinylidene]-2′-one hydrochloride]
IC50 (FLT3 kinase; Table 2): 939 nM
GI50 (MV4;11 cells; Homo sapiens, MV4-11): 116 nM
GI50 (MDA-MB-231; Homo sapiens, MDA-MB-231): > 10 nM

Cl.Cl.O=C1Nc2ccccc2/C1=C1/Nc2ccccc2/C1=N\OCCN1CCNCC1 [Compound 28, (2Z,3E)-3-((2-(piperazin-1-yl)ethoxy)imino)-[2,3′-biindolinylidene]-2′-one dihydrochloride]
GI50 (MV4;11 cells; Homo sapiens, MV4-11): 0.51 nM
GI50 (MDA-MB-231; Homo sapiens, MDA-MB-231): 276 nM
weights of the liver and the kidney (MDA-MB-231 xenograft): no significant difference
weight loss or other signs of toxicity during the administration period (MV4-11 xenograft; 20 mg/kg oral once daily for 21 days): no weight loss or any other signs of toxicity
day by which the tumor disappeared (MV4-11 xenograft; 20 mg/kg oral once daily, based on measured tumor volume): ≤ 14 days

CN1CCN(CCO/N=C2/C(=C3/C(=O)Nc4ccc(F)cc43)Nc3ccccc32)CC1.Cl.Cl [Compound 34, (2Z,3E)-5′-fluoro-3-((2-(4-methylpiperazin-1-yl)ethoxy)imino)-[2,3′-biindolinylidene]-2′-one dihydrochloride]
GI50 (MV4;11 cells; Homo sapiens, MV4-11): 11.1 nM
GI50 (MDA-MB-231; Homo sapiens, MDA-MB-231): 127 nM
weights of the liver and the kidney (MDA-MB-231 xenograft): no significant difference

CN1CCN(CCO/N=C2/C(=C3/C(=O)Nc4ccc(Br)cc43)Nc3ccccc32)CC1 [Compound 41, (2Z,3E)-5′-bromo-3-((2-(4-methylpiperazin-1-yl)ethoximino)-[2,3′-biindolinylidene]-2′-one dihydrochloride]
IC50 (FLT3 kinase; Table 2): 4.8 nM
GI50 (MV4;11 cells): 25 nM

CC1(COc2ccc3c(c2)ncn3-c2ccc3cccc(N4CCC(N)CC4)c3n2)COC1 [Crenolanib]
GI50 (MOLM14 Wild type): 4.7 nM
GI50 (MOLM14 FLT3-ITD-D835Y): 15 nM

CCc1nc(C(N)=O)c(Nc2ccc(N3CCC(N4CCN(C)CC4)CC3)c(OC)c2)nc1NC1CCOCC1 [Gilteritinib]
GI50 (MOLM14 Wild type): 8.5 nM
GI50 (MOLM14 FLT3-ITD-D835Y): 43 nM

CO[C@@H]1[C@H](N(C)C(=O)c2ccccc2)C[C@H]2O[C@]1(C)n1c3ccccc3c3c4c(c5c6ccccc6n2c5c31)C(=O)NC4 [Midostaurin]
GI50 (MOLM14 Wild type): 80 nM
GI50 (MOLM14 FLT3-ITD-D835Y): 79 nM

CNC(=O)c1cc(Oc2ccc(NC(=O)Nc3ccc(Cl)c(C(F)(F)F)c3)cc2)ccn1 [Sorafenib]
GI50 (MOLM14 Wild type): 28 nM
GI50 (nM) MOLM14-ITD D835Y (MOLM14 FLT3-ITD-D835Y): No Activity

(2Z,3E)-2′-oxo-3-((2-(piperazin-1-yl)ethoximino)-[2,3′-biindolinylidene]-5′-carboxylic acid dihydrochloride [Compound 10]
IC50 (FLT3 kinase; [1]): 3 nM
IC50 (MV4;11 cells; Table 1): 40 nM

(2Z,3E)-3-((2-(4-methylpiperazin-1-yl)ethoxy)imino)-5′-(trifluoromethox[2,3′-biindolinylidene]-2′-one dihydrochloride [Compound 45]
IC50 (FLT3 kinase; Table 2): 5.6 nM
GI50 (MV4;11 cells): 22 nM

(2Z,3E)-5′-fluoro-3-((2-(pyrrolidin-1-yl)ethoximino)-[2,3′-biindolinylidene]-2′-one hydrochloride [Compound 36]
IC50 (FLT3 kinase; Table 2): 267 nM
GI50 (MV4;11 cells): 212 nM
GI50 (MDA-MB-231): 805 nM

(2Z,3E)-34(2-(piperazin-1-yl)ethoxy)imino)-5′-(trifluoromethoxy)-[2,3′-biindolinylidene]-2′-one dihydrochloride [Compound 44]
IC50 (FLT3 kinase; Table 2): 40.2 nM
GI50 (MV4;11 cells): 20 nM
